Laboratory results as given in US9278932B1, “Process for preparation of 2-chloro-N-(4-chloro-3-pyridin-2-ylphenyl)-4-methylsulfonylbenzamide solid forms” (SHILPA MEDICARE LIMITED, priority 2013, dated 2016).

What was measured:
[1] = storage and handling stability of the solid form; format: physicochemical
[2] = crystalline free base; cited from earlier work

| stability on handling and storage (morphology and physicochemical characteristics) ([1]; solid crystalline form, stored for longer time) | time stable to handle and store without any significant or measurable change in morphology and physicochemical characteristics ([1]; solid crystalline material after drying, storage) | SMILES | solubility [2] |
| --- | --- | --- | --- |
| quite stable | more than 6 months | CS(=O)(=O)c1ccc(C(=O)Nc2ccc(Cl)c(-c3ccccn3)c2)c(Cl)c1 [Form-SV, 2-Chloro-N-(4-chloro-3-pyridin-2-ylphenyl)-4-methylsulfonylbenzamide] |  |
|  |  | CS(=O)(=O)c1ccc(C(=O)Nc2ccc(Cl)c(-c3ccccn3)c2)c(Cl)c1 [Vismodegib] | pH dependent solubility |
